# According to a melting point compilation (Tetko et al.; mined from patent text by program, amines drawn as free bases though some values may be those of a salt):
row,Structure (SMILES),melting point [°C]
1,O=C1N[C@@H](C(=O)NO)C[C@H]1c1ccc(-c2ccc(F)cc2)cc1,193 to 202
2,CCC(C)n1cc(Cl)nc(N2CCc3cc(Br)cc(Cl)c32)c1=O (stereo unspecified),150
3,CC1=NN=C(c2ccc([N+](=O)[O-])c(C)c2)c2cc3c(cc2C1)OCO3,189 to 194
4,CCOc1nc2cc(N)ccc2c(=O)o1,185 to 187
5,COc1ccc(-c2nc(N)c(C(N)=O)nc2-c2ccc(=O)n(C(C)C)c2)cc1,244
6,O=C(O)CCc1c(Sc2ccccc2)c2cc(F)ccc2n1Cc1ccc(Cl)cc1,138 to 139
7,CCOC(=O)c1ccc(OC(F)F)cc1SC,83 to 85
8,O=C(Cn1c(-c2cccc(Cl)c2)nc2cccnc21)Nc1ccccn1,165 to 166
9,O=C1OC2(CCN(C(=O)Nc3ncc(-c4ccccc4)cn3)CC2)c2c(F)cccc21,244 to 246
10,COc1ccc(S(=O)(=O)N(CCCO)c2ccc(Cl)cc2Cc2c(F)cccc2F)cc1OC,138
11,CN1C(=O)C2CC2(c2ccc(N)cc2)C1=O (stereo unspecified),137 to 139
12,CN(C)C(=O)c1cc(N)cc(C(F)(F)F)c1,154
13,Cc1onc(-c2ccccc2)c1C(=O)N(CCN(C)C)c1ccccc1,88 to 89
14,CC(=O)OC[C@H](Cc1ccccc1)NC(=O)[C@H](Cc1ccccc1)NC(=O)c1ccccc1,186 to 187
15,Cc1cc(C)c2c(c1)c(-c1ccccc1Cl)c(C(=O)O)c(=O)n2C,162 to 163
16,Nc1ncc(-c2cccc(Cl)c2Cl)c(Cl)n1,228 to 230
17,Nc1nc(-c2ccccc2Cl)nc(N2CCCCC2)n1,184 to 186
18,CC(C)Oc1c(-c2ccc3c(c2)[C@@H](N2Cc4ccccc4C2=O)[C@H](O)C(C)(C)O3)c(=O)c1=O (relative stereo),> 250
19,CCN(CC)CCNC(=O)c1cc(Cl)c(N)cc1OCCS(=O)CC (stereo unspecified),92 to 94
20,O=[N+]([O-])c1ccc(Oc2ccc(N3CCN(c4ccncc4)CC3)cc2)nc1,174 to 175
21,CCOC(=O)c1cc2cc(C#N)ccc2s1,138 to 139
22,O=C(O)c1ccc(C(c2ccccc2)c2ccccc2)cn1,189 to 191
23,O=C(O)Cn1c(=O)n(Cc2ccc(Br)cc2F)c(=O)c2ccc(Br)cc21,217
24,O=C(C=C(c1ccccc1)N1CNc2cccnc21)OCCC(OCCCc1ccc(Cl)cc1)C(=O)O (stereo unspecified),95

row,Structure (SMILES),melting point [°C]
1,COC(=O)c1ccc(CN2C(=O)C(CCO)Oc3ccccc32)cc1 (stereo unspecified),94 to 95
2,COC(=O)c1sc(C(C)(C)C)cc1NC(=O)Nc1ccc(F)cc1,160 to 162
3,COc1ccc2ccc(N3C(=O)c4ccccc4C3OCC(=O)N3CCOCC3)nc2n1 (stereo unspecified),192
4,COc1ccc(NC2(C(N)=O)CCOCC2)cc1,141 to 143
5,CC(C)c1cccc(C(C)C)c1NC(=O)Nc1ccc(-c2ccccc2)nc1-c1ccccc1,206 to 208
6,COc1ccccc1Oc1ccc([N+](=O)[O-])cc1C(=O)O,162 to 165
7,COC(=O)C1=C(C)Nc2nccn2C1c1ccccn1 (stereo unspecified),224 to 226
8,Nc1nc(CCc2ccccc2)nc2oc(-c3ccco3)nc12,206 to 208
9,COc1ccc(CS(=O)(=O)/C(=C/c2ccc(Br)cc2)C(=O)c2ccc(Br)cc2)cc1,146 to 150
10,C[C@@H]1C[C@H](CC2CCCCC2)C(=O)O1 (relative stereo),60 to 62
11,O=c1c(Br)cc2cnc(Nc3ccccn3)nc2n1C1CCCC1,273 to 275
12,CSc1nccc(C(=NO)C(=O)c2cccc(Br)c2)n1,156 to 158
13,CC(C)n1nc(-c2sc(NC(=O)c3c(Cl)cccc3Cl)nc2-c2ccccc2)ccc1=O,248 to 249
14,c1cc(CN2CCCCC2)cc(OCCCNc2ncnc3ccccc23)c1,111
15,CC(=O)OCc1c(C#N)cnc2c(NC(=O)c3c(Cl)cccc3Cl)cccc12,201 to 203
16,CCCCSc1ccc(/C=C\C(C)=O)cc1[N+](=O)[O-],100
17,CC(=O)SCC(C(=O)O)C(C)c1ccc(O)cc1 (stereo unspecified),48
18,CS(=O)(=O)Nc1ccc([N+](=O)[O-])cc1Br,148 to 151
19,CC(O)C(CCCc1ccccc1)n1ncc2c(=O)[nH]c(Cc3ccc(Cl)c(Cl)c3)nc21 (stereo unspecified),161
20,CCOc1cc2c(cc1S(=O)(=O)NC(=O)NC)C(CNC(=O)N1CC(C)=C(CC)C1=O)CCO2 (stereo unspecified),187 to 188
21,CCCCc1nc2cccc(C(=O)OCOC(=O)C(C)(C)C)c2n1Cc1ccc2nc(-c3ccccc3-c3nnn[nH]3)ncc2c1,126 to 128
22,O=C(CCCC1CCCCC1)C1=C(O)COC1=O,38 to 42
23,CSC(=Nc1ccc(Cl)c(Cl)c1)NS(C)(=O)=O,122 to 125
24,NCCN1CCC(Nc2nc3ccccc3n2Cc2ccc(CO)o2)CC1,165

row,Structure (SMILES),melting point [°C]
1,Nc1c(-c2cc(Cl)ccc2O)c2cc([N+](=O)[O-])ccc2[nH]c1=O,344 to 347
2,O=[N+]([O-])CCc1[nH]ccc1-c1ccc(I)cc1,88 to 89
3,Nc1nc(-c2ccc(F)cc2)c(CC(=O)O)s1,267 to 268
4,CC(C(=O)O)c1cccc(NC(=O)NCC(=O)N2[C@@H](c3cccc(F)c3F)SC[C@H]2C(=O)OC(C)(C)C)c1 (stereo partly specified),130
5,N=C(NO)c1cnc(N)nc1,218
6,CC1(C)NC(=O)c2ccc(O)cc21,231 to 233
7,CCc1cc(=O)c2c([nH]1)CCOC2,238 to 240
8,Cc1cccc(C)c1-c1nc2ccccc2n2cncc12,115 to 125
9,O=[N+]([O-])c1ccc(Oc2ccc(O)c(Cl)c2Cl)cc1,147 to 150
10,CCCCCCCCCCNC(CCCNC(=N)N)C(=O)O (stereo unspecified),100
11,CCc1c(S(=O)(=O)c2ccc(=O)[nH]n2)oc2ccc(Cl)cc12,209 to 210
12,NCCNC(c1ccccc1)c1ccccc1,23 to 24
13,Cc1cccc(-c2[nH]c(C(C)C)nc2-c2ccc(F)c(-c3ccc(S(C)(=O)=O)nc3)c2)n1,102 to 105
14,Nc1ccc(-c2ncc(C(F)(F)F)cc2Cl)cc1[N+](=O)[O-],126 to 127
15,Cc1cc(N(C)C)cc(C)c1C1OC(C)(C)N=C1c1ccccc1 (stereo unspecified),105
16,COc1ccc(CC(=O)c2ccc(OC)cc2OC)cc1,78.5 to 79.5
17,COP1(=O)C=Cc2ccccc21 (stereo unspecified),89 to 90
18,Cc1c(C#N)c(=O)oc2c(C)c(O)c(CC(Br)CBr)cc12 (stereo unspecified),175 to 176
19,CC(C)CC(NC(=O)OCc1ccccc1)C(=O)NC(Cc1ccc2ccccc2c1)C(=O)CSCc1ccco1 (stereo unspecified),103 to 104
20,COc1cc2c(c(F)c1CNC1CCCNC1c1ccccc1)N(C)C(=O)CC2(C)C (stereo unspecified),> 270
21,C#CCN(Cc1cn(C(C)(C)C)nn1)Cc1cn(C(C)(C)C)nn1,126
22,CCN1c2ncc(CCc3ccnc(C)c3)cc2C(=O)N(C)c2ccc(Cl)nc21,94 to 96
23,COc1cc(S(C)(=O)=O)ccc1-n1nc(C(F)(F)F)cc1-c1ccc(-c2ccco2)cc1,200
